From ChEMBL document CHEMBL4665621, “The discovery of VU0652957 (VU2957, Valiglurax): SAR and DMPK challenges en route to an mGlu PAM development candidate” (Bioorg Med Chem Lett, 2019)

Tests used:
[1] = target: T1, Metabotropic glutamate receptor 4 (Homo sapiens, UniProt Q14833); test: Positive allosteric modulator activity at human mGlu4 receptor/Gqi5 in presence of EC20 glutamate by calcium mobilization assay; format: functional
Cytochrome P450 1A2 = target: T2, Cytochrome P450 1A2 (Homo sapiens, UniProt P05177); test: Inhibition of CYP1A2 (unknown origin); format: ADME
T2 sequence (P05177 whole entry): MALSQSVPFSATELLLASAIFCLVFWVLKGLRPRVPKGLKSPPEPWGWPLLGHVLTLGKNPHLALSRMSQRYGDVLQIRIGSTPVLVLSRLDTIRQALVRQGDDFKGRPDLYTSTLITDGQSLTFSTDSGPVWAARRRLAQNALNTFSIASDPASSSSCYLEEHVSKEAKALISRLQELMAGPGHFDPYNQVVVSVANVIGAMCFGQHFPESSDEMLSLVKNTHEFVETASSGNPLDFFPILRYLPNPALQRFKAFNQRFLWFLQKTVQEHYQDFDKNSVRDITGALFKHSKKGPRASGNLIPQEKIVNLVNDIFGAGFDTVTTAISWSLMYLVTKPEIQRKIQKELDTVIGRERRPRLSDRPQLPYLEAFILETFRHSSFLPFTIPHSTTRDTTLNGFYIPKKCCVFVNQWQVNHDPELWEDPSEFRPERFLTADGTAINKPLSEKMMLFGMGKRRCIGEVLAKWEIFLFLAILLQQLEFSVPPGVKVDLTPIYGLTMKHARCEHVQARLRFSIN

[2] = target: T1, Metabotropic glutamate receptor 4; test: Positive allosteric modulator activity at human mGlu4 receptor/Gqi5 assessed as maximum activity at 30 uM by calcium mobilization assay relative to glutamic acid; format: functional; conditions: filed as positive allosteric modulator
[3] = Brain to plasma partition coefficient, Kp of the compound in Sprague-Dawley rat at 0.20 to 0.25 mg/kg, iv cassette dose measured at 0.25 hrs; format: ADME, organism-based; conditions: dose 0.20-0.25 mg/kg
[4] = Protein binding in rat plasma assessed as unbound fraction; format: ADME, cell-free
[5] = Protein binding in human plasma assessed as unbound fraction; format: ADME, cell-free
[6] = Hepatic clearance in human; format: ADME
Cytochrome P450 3A4 = Cytochrome P450 3A4 (Homo sapiens, UniProt P08684); test: Inhibition of CYP3A4 (unknown origin); format: ADME
Cytochrome P450 3A4, sequence (P08684 whole entry): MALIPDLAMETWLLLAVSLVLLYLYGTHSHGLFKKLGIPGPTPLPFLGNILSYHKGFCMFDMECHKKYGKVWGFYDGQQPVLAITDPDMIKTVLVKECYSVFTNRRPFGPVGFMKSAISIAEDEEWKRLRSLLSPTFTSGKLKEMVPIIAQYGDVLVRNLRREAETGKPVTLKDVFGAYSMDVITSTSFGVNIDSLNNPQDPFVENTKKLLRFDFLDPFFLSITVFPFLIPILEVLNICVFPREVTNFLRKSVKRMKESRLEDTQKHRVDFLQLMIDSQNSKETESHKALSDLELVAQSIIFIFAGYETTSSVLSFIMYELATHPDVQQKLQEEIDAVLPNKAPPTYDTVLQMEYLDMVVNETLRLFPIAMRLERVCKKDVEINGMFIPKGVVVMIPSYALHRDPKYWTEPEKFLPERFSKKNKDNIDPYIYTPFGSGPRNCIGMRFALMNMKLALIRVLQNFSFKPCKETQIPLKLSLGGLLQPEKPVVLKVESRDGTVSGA

Rattus norvegicus [7] = test: Reversal of haloperidol-induced catalepsy in rat assessed as reduction in catalepsy at 3 mg/kg, po dosed along with 1.5 mg/kg haloperidol relative to untreated control; format: functional; set-up: scale not given: the % may be the effect or the level left
Cytochrome P450 2C9 = Cytochrome P450 2C9 (Homo sapiens, UniProt P11712); test: Inhibition of CYP2C9 (unknown origin); format: ADME
Cytochrome P450 2C9, sequence (P11712 whole entry): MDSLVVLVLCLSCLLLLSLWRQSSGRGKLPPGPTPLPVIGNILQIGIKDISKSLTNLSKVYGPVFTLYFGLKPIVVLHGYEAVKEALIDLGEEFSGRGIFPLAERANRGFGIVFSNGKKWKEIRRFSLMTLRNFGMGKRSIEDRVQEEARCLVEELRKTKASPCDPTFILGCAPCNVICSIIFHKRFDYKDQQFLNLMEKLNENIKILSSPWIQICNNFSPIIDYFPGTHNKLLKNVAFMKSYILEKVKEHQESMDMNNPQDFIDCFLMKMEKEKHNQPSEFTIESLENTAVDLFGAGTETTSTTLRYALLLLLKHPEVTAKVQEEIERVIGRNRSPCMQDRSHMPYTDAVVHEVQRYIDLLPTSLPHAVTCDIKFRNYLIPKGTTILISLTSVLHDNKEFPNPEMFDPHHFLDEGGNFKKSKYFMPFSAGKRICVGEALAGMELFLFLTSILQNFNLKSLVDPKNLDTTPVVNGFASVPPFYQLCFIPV

Cytochrome P450 2D6 = Cytochrome P450 2D6 (Homo sapiens, UniProt P10635); test: Inhibition of CYP2D6 (unknown origin); format: ADME
Cytochrome P450 2D6, sequence (P10635 whole entry): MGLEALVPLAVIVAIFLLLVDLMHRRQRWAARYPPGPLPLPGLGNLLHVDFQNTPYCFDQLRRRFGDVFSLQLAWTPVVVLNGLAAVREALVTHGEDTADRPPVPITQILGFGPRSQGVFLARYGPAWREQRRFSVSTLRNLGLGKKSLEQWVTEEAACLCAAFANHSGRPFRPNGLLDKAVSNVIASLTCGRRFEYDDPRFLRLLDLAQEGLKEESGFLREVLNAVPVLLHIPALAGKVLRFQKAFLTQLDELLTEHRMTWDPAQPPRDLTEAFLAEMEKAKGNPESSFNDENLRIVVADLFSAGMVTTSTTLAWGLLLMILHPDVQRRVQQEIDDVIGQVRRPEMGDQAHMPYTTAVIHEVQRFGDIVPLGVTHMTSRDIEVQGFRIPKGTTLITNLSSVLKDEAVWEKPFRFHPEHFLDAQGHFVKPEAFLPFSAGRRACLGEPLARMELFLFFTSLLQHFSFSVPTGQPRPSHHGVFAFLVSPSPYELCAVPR

[8] = Half life in rat; format: ADME; conditions: in vivo
[9] = Fraction unbound in rat brain homogenate; format: ADME, tissue-based
Cytochrome P450 2C19 = Cytochrome P450 2C19 (Homo sapiens, UniProt P33261); test: Inhibition of CYP2C19 (unknown origin); format: ADME
Cytochrome P450 2C19, sequence (P33261 whole entry): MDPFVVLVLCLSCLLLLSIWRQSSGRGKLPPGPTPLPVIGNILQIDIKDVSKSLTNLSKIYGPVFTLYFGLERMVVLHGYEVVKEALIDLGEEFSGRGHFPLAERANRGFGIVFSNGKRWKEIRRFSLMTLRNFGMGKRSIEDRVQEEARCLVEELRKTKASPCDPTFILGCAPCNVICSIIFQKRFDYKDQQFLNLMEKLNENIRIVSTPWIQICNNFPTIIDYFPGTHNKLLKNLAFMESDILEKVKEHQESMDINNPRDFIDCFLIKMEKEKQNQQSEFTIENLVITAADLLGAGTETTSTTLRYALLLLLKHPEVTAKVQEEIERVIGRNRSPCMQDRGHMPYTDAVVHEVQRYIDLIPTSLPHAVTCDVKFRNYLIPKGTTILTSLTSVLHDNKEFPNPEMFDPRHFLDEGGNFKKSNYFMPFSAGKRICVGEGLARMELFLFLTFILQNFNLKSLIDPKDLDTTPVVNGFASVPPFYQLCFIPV

[10] = target: Metabotropic glutamate receptor 4 (Rattus norvegicus, UniProt P31423); test: Positive allosteric modulator activity at rat mGlu4 receptor/Gqi5 in presence of EC20 glutamate by calcium mobilization assay; format: functional
Metabotropic glutamate receptor 4 (Rattus norvegicus, UniProt P31423), sequence (P31423 whole entry): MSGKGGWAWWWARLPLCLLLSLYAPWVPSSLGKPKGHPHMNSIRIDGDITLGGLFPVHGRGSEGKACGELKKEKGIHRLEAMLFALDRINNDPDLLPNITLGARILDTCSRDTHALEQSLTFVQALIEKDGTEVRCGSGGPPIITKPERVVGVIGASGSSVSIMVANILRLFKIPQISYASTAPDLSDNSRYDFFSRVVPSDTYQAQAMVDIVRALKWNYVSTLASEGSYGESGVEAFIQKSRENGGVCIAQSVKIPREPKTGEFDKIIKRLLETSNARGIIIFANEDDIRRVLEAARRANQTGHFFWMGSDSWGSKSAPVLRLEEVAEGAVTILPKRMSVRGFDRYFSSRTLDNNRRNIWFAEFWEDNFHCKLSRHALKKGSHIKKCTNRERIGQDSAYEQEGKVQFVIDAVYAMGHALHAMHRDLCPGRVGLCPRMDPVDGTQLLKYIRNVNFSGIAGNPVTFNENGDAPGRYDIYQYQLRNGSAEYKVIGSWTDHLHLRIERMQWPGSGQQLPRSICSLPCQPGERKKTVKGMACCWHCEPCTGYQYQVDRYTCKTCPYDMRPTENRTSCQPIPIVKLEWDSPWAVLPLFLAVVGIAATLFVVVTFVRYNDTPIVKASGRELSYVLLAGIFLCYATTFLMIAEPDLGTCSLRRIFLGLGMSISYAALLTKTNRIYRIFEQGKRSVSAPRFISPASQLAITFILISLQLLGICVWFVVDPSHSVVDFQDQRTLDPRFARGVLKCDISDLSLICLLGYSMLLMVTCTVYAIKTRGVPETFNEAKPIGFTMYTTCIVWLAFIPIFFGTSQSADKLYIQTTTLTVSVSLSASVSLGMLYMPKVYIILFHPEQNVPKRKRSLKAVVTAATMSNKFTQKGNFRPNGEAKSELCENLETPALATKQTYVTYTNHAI

[11] = target: Metabotropic glutamate receptor 4 (Rattus norvegicus) (UniProt P31423); test: Positive allosteric modulator activity at rat mGlu4 receptor/Gqi5 assessed as maximum activity by calcium mobilization assay relative to glutamic acid; format: functional; conditions: filed as positive allosteric modulator
Metabotropic glutamate receptor 4 (Rattus norvegicus), sequence (P31423 whole entry): as above

Rattus norvegicus [12] = test: Reversal of haloperidol-induced catalepsy in po dosed rat assessed as minimum effective dose; format: functional; conditions: read-out: MED
[13] = Volume of distribution at steady state in rat; format: ADME; conditions: in vivo

T1 sequence (Q14833 whole entry): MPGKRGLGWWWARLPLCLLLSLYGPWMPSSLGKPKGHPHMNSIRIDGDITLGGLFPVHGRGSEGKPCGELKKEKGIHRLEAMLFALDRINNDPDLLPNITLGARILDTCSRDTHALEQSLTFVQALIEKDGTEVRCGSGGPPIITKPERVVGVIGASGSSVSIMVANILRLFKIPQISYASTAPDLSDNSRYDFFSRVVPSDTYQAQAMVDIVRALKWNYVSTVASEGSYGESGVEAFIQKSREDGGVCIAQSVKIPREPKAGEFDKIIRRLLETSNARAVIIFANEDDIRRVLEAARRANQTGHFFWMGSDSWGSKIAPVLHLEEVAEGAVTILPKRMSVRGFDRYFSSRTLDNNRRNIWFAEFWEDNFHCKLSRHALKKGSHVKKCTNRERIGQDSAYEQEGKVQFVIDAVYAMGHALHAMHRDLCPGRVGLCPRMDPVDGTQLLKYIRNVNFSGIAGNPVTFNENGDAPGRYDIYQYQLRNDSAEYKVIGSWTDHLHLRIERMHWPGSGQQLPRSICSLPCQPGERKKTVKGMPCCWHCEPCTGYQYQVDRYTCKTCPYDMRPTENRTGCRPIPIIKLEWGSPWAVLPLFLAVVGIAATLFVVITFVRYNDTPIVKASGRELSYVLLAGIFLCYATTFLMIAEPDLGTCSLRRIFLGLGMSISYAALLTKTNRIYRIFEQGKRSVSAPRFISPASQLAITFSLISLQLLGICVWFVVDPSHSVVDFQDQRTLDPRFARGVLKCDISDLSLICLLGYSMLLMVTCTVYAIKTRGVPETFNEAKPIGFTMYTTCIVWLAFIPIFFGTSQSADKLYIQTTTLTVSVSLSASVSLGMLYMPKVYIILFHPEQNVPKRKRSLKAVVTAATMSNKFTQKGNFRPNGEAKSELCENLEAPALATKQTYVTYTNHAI

SMILES | EC50 [1] | Activity [2] | further results
c1cnc2cc(Nc3n[nH]c4cccnc34)ccc2c1 | > 10000 nM | – | –
c1cnc2c(Nc3ccc4c(C5CC5)nccc4c3)n[nH]c2c1 | 71 nM | 86% | IC50 (Cytochrome P450 1A2): < 1000 nM
CC(c1nccc2cc(Nc3n[nH]c4cccnc34)ccc12)C(F)(F)F (stereo not given) | 36 nM | 100% | Kp at 0.25 h [3]: 2.2
O=c1c2ccc(Nc3n[nH]c4cccnc34)cc2ccn1CC1CCC1 | 653 nM | 31% | –
Cn1nccc1-c1nccc2cc(Nc3n[nH]c4cccnc34)ccc12 | 45 nM | 78% | Fu [4]: 0.088 fraction; Fu [5]: 0.096 fraction; CLH [6]: 11.5 mL/min/kg; Kp at 0.25 h [3]: 1.6
c1cnc2c(Nc3ccc4nccnc4c3)n[nH]c2c1 | > 10000 nM | – | –
FC(F)c1nccc2cc(Nc3n[nH]c4cccnc34)ccc12 | 8 nM | 67% | IC50 (Cytochrome P450 3A4): > 30000 nM; Fu [4]: 0.032 fraction; Activity (Rattus norvegicus [7]): 45%; Fu [5]: 0.03 fraction; IC50 (Cytochrome P450 2C9): 30000 nM; IC50 (Cytochrome P450 1A2): 300 nM; Kp at 0.25 h [3]: 2.2; IC50 (Cytochrome P450 2D6): > 30000 nM
c1cnc2ccc(Nc3n[nH]c4cccnc34)cc2c1 | 732 nM | 42% | –
CN1CCN(c2nccc3cc(Nc4n[nH]c5cccnc45)ccc23)CC1 | 1290 nM | 72% | –
Cn1ccc2cc(Nc3n[nH]c4cccnc34)ccc2c1=O | > 10000 nM | 30% | –
FC1(F)CCN(c2nccc3cc(Nc4n[nH]c5cccnc45)ccc23)C1 | 249 nM | 75% | –
O=c1c2ccc(Nc3n[nH]c4cccnc34)cc2ccn1C1CCCC1 | 1730 nM | 22% | –
FC(F)(F)c1nccc2cc(Nc3n[nH]c4nccnc34)ccc12 | 51 nM | 83% | half-life [8]: < 1 h; Activity (Rattus norvegicus [7]): 24%
Cc1ccn(-c2nccc3cc(Nc4n[nH]c5cccnc45)ccc23)n1 | 237 nM | 84% | –
c1cnc2c(Nc3ccc4c(-n5cccn5)nccc4c3)n[nH]c2c1 | 63 nM | 85% | IC50 (Cytochrome P450 3A4): 13000 nM; Fu [4]: 0.046 fraction; Fu [5]: 0.09 fraction; IC50 (Cytochrome P450 2C9): 7300 nM; IC50 (Cytochrome P450 1A2): 1500 nM; CLH [6]: 35.7 mL/min/kg; Fu [9]: 0.029%; Kp at 0.25 h [3]: 1.37; IC50 (Cytochrome P450 2D6): 7200 nM
CCc1nccc2cc(Nc3n[nH]c4cccnc34)ccc12 | 45 nM | 64% | IC50 (Cytochrome P450 1A2): < 1000 nM
c1cnc2c(Nc3ccc4c(NC5CCC5)nccc4c3)n[nH]c2c1 | 869 nM | 71% | –

SMILES | EC50 [1] | Activity [2] | further results
c1cnc2c(Nc3ccc4ccncc4c3)n[nH]c2c1 | > 10000 nM | – | –
c1cnc2c(Nc3ccc4ncncc4c3)n[nH]c2c1 | > 10000 nM | – | –
CCN(CC)c1nccc2cc(Nc3n[nH]c4cccnc34)ccc12 | 164 nM | 95% | –
FC(F)(F)c1nccc2cc(Nc3n[nH]c4ncccc34)ccc12 | 65 nM | 93% | Activity (Rattus norvegicus [7]): 50%; IC50 (Cytochrome P450 2C19): 12500 nM; EC50 [10]: 197 nM; Kp at 0.25 h [3]: 1.5; Emax [11]: 123%; minimal effective dose (Rattus norvegicus [12]): 1 mg/kg
FC(F)(F)C1CCCCN1c1nccc2cc(Nc3n[nH]c4cccnc34)ccc12 (stereo not given) | 306 nM | 57% | –
c1cnc2c(Nc3ccc4c(N5CCCCC5)nccc4c3)n[nH]c2c1 | 215 nM | 74% | –
Cc1cc(C)n(-c2nccc3cc(Nc4n[nH]c5cccnc45)ccc23)n1 | 726 nM | 70% | –
c1cnc2c(Nc3ccc4c(N5CCCC5)nccc4c3)n[nH]c2c1 | 1690 nM | 54% | –
c1ccc(CNc2nccc3cc(Nc4n[nH]c5cccnc45)ccc23)cc1 | 1360 nM | 58% | –
c1cnc2c(Nc3ccc4cnccc4c3)n[nH]c2c1 | 76 nM | 114% | t1/2 [8]: 10.2 h; IC50 (Cytochrome P450 3A4): 440 nM; fraction unbound [4]: 0.046; Fu [5]: 0.092 fraction; IC50 (Cytochrome P450 2C9): 1350 nM; IC50 (Cytochrome P450 1A2): 150 nM; Fu [9]: 0.029%; IC50 (Cytochrome P450 2D6): 3980 nM; Vdss [13]: 4.88 L/kg
c1ccc2cc(Nc3n[nH]c4cccnc34)ccc2c1 | 403 nM | 79% | –
c1cnc2c(Nc3ccc4cnccc4n3)n[nH]c2c1 | > 10000 nM | – | –
FC(F)(F)c1nccc2cc(Nc3n[nH]c4cccnc34)ccc12 | 18 nM | 77% | half-life [8]: < 1 h; Activity (Rattus norvegicus [7]): 24%; Kp at 0.25 h [3]: 4.3
COCCNc1nccc2cc(Nc3n[nH]c4cccnc34)ccc12 | 121 nM | 89% | –
CC(C)Cn1ccc2cc(Nc3n[nH]c4cccnc34)ccc2c1=O | 685 nM | 24% | –
Cn1nc(C(F)(F)F)cc1-c1nccc2cc(Nc3n[nH]c4cccnc34)ccc12 | 132 nM | 84% | –
O=c1[nH]ccc2cc(Nc3n[nH]c4cccnc34)ccc12 | 264 nM | 77% | IC50 (Cytochrome P450 3A4): > 30000 nM; IC50 (Cytochrome P450 2C9): > 30000 nM; IC50 (Cytochrome P450 1A2): 3300 nM
